Target: T1, KRAS 4B G12C protein (Homo sapiens, UniProt P01116, G12C)
T1 construct: This protein contained 188 amino acids in total, including an N-terminal 6-Histidine tag; made in house; host or cells: E. coli BL21
Test: In vitro covalent adduct formation (CAF) assay by LC-MS
Type: binding
Conditions: compound 10 μM, protein 5 μM, 22° C., percentage of protein bound by the compound
In short: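 Recombinant His-TEV-tagged KRAS 4B G12C (residues 1-169, E. coli) at 5 μM in Tris-buffered saline pH 7.4 was incubated with 10 μM compound (4% DMSO) at 22° C. for one hour, sampling over time. Intact-mass LC-MS free:adduct ratios gave % protein bound; duplicates.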

SMILES	CAF (10 minutes/60 minutes) at 10 micromolar: 10 minutes	CAF (10 minutes/60 minutes) at 10 micromolar: 60 minutes
C=CC(=O)N1CC2(C1)CN(c1nc(OC[C@@H]3CCCN3C)nc3c1CN(C1CCc4ccccc41)C3)CCO2 (stereo partly drawn) [1-216]	18%	54%
C=CC(=O)N1CCN(c2nc(OC[C@@H]3CCCN3C)nc3c2CN(Cc2cccc4ncoc24)C3)C[C@@H]1CC#N [1-203]	11%	52%
C=CC(=O)N1C2CCCC1CN(c1nc(OC[C@@H]3CCCN3C)nc3c1CN(Cc1cc(OC)ccc1Cl)C3)C2 [1-148]	0%/ 0%	0%/ 0%
C=CC(=O)N1CCN(c2nc(OC[C@@H]3CCCN3C)nc3c2CN(Cc2cc(O)ccc2F)C3)[C@@H](C)C1 [1-50]	53%	92%
C=CC(=O)N1CCN(c2nc(OC[C@@H]3CCCN3C)nc3c2CN(Cc2cc(F)ccc2Cl)C3)[C@@H](C)C1 [1-34]	0%	14%
C=CC(=O)N1CCN(c2nc(OC[C@@H]3CCCN3C)nc3c2CN(C2CCOc4ccccc42)C3)C[C@@H]1CC#N (stereo partly drawn) [1-86]	59%	93%
C=CC(=O)N1CCN(c2nc(OC[C@@H]3CCCN3C)nc3c2CN(Cc2ccccc2Cl)C3)C[C@@H]1CC#N [1-75]	96%	97%
C=CC(=O)N1CCN(c2nc(OC[C@@H]3CCCN3C)nc3c2CN(Cc2ccc(F)cc2C(C)C)C3)C[C@@H]1CC#N [1-196]	41%	52%
C=C(F)C(=O)N1CCN(c2nc(OC[C@@H]3CCCN3C)nc3c2CN(Cc2c(Cl)cccc2OC(F)F)C3)C[C@@H]1CC#N [1-104]	8%	48%
C=CC(=O)N1CCN(c2nc(OC[C@@H]3CCCN3C)nc3c2CN(Cc2cc(OC)ccc2Cl)C3)C[C@@H]1CC#N [1-68]	90%	97%
C=CC(=O)N1CCN(c2nc(OC[C@@H]3CCCN3C)nc3c2CN(Cc2cc(Cl)ccc2Cl)C3)[C@@H](C)C1 [1-41]	3%	22%
C=CC(=O)N1CCN(c2nc(OC[C@@H]3CCCN3C)nc3c2CN(Cc2ccccc2CCC)C3)C[C@@H]1CC#N [1-206]	86%	94%
C=CC(=O)N1CCN(c2nc(OC[C@@H]3CCCN3C)nc3c2CN(S(=O)(=O)c2ccccc2C)C3)C[C@@H]1CC#N [1-237]	27%	80%
C=CC(=O)N1CCN(c2nc(OC[C@@H]3CCCN3C)nc3c2CN(Cc2c(C)cccc2C)C3)[C@@H](C)C1 [1-3]	6%	33%
C=CC(=O)N1CCN(c2nc(OC[C@@H]3CCCN3C)nc3c2CN(C2CCCc4ccccc42)C3)C[C@@H]1CC#N (stereo partly drawn) [1-52]	6%	91%
C=CC(=O)N1CCN(c2nc(OC[C@@H]3CCCN3C)nc3c2CN(Cc2cc(O)ccc2Cl)C3)CC1 [1-165]	88%	96%
C=CC(=O)N1CCN(c2nc(OC[C@@H]3CCCN3C)nc3c2CN(C2CCc4ccccc42)C3)[C@@H](C#N)C1 (stereo partly drawn) [1-150]	21%	31%
C=CC(=O)N1CCN(c2nc(OC[C@@H]3CCCN3C)nc3c2CN(C2CCc4ccccc42)C3)[C@H](C(N)=O)C1 (stereo partly drawn) [1-182]	7%	30%

SMILES	CAF (10 minutes/60 minutes) at 10 micromolar: 10 minutes	CAF (10 minutes/60 minutes) at 10 micromolar: 60 minutes
C=CC(=O)N1C[C@H](C)N(c2nc(OC[C@@H]3CCCN3C)nc3c2CN(Cc2c(C)ccc(O)c2C)C3)C[C@H]1C [1-21]	20%	63%
C=CC(=O)N1CCN(c2nc(OC[C@@H]3CCCN3C)nc3c2CN(Cc2cnccc2Cl)C3)C[C@@H]1CC#N [1-119]	66%	94%
C=CC(=O)N1CCN(c2nc(OC[C@@H]3CCCN3C)nc3c2CN(Cc2c(O)cccc2F)C3)[C@@H](C)C1 [1-47]	11%	43%
C=CC(=O)N1CCN(c2nc(OC[C@@H]3CCCN3C)nc3c2CN(Cc2cccc4ocnc24)C3)C[C@@H]1CC#N [1-204]	46%	84%
C=CC(=O)N1CCN(c2nc(OCc3ccccn3)nc3c2CN(C2CCc4ccccc42)C3)C[C@@H]1CC#N (stereo partly drawn) [1-132]	24%	68%
C=C(F)C(=O)N1CCN(c2nc(OC[C@@H]3CCCN3C)nc3c2CN(Cc2c(CC)ccc(O)c2C)C3)C[C@@H]1CC#N [1-253]	93%	94%
C=CC(=O)N1CCN(c2nc(OC[C@@H]3CCCN3C)nc3c2CN(Cc2c(Cl)cccc2OC(F)F)C3)C[C@H]1C [1-105]	0%/ 0%	0%/ 0%
C=CC(=O)N1C[C@H](C)N(c2nc(OC[C@@H]3CCCN3C)nc3c2CN(Cc2cc(O)ccc2C)C3)C[C@H]1C [1-18]	21%	65%
C=CC(=O)N1CCN(c2nc(OC[C@@H]3CCCN3C)nc3c2CN(Cc2c(C)cccc2OC)C3)C[C@@H]1CC#N [1-59]	46%	98%
C=CC(=O)N1CCN(c2nc(OC[C@@H]3CCCN3C)nc3c2CN(C2CCc4ccccc42)C3)C[C@@H]1Cc1ncc[nH]1 (stereo partly drawn) [1-224, 1-((2S)-2-((1H-imidazol-2-yl)methyl)-4-(6-(2,3-dihydro-1H-inden-1-yl)-2-(((S)-1-methylpyrrolidin-2-yl)methoxy)-6,7-dihydro-5H-pyrrolo[3,4-d]pyrimidin-4-yl)piperazin-1-yl)prop-2-en-1-one]	0%/ 0%	0%/ 0%
C=CC(=O)N1CCN(c2nc(OC[C@@H]3CCCN3C)nc3c2CN(Cc2cc(Cl)ccc2Cl)C3)C[C@@H]1CC#N [1-28]	94%	98%
C=CC(=O)N1CCN(c2nc(OC[C@@H]3CCCN3C)nc3c2CN(Cc2c(Cl)c(F)cc4[nH]ncc24)C3)C[C@@H]1CC#N [1-183]	63%	93%
C=CC(=O)N1CCN(c2nc(OC[C@@H]3CCCN3C)nc3c2CN(Cc2c(Cl)ccc4ccccc24)C3)C[C@@H]1CC#N [1-236]	94%	95%
C=CC(=O)N1CCN(c2nc(OC[C@@H]3CCCN3C)nc3c2CN(Cc2cc(F)ccc2C)C3)[C@@H](C)C1 [1-20]	0%	6%
C=CC(=O)N1CCN(c2nc(OC[C@@H]3CCCN3C)nc3c2CN(C2COc4ccccc42)C3)C[C@@H]1CC#N (stereo partly drawn) [1-106]	59%	75%
C=CC(=O)N1CCN(c2nc(OC[C@@H]3CCCN3C)nc3c2C(C(F)(F)F)N(Cc2ccccc2)C3)C[C@@H]1CC#N (stereo partly drawn) [1-181, 2-((2S)-1-acryloyl-4-(6-benzyl-2-(((S)-1-methylpyrrolidin-2-yl)methoxy)-5-(trifluoromethyl)-6,7-dihydro-5H-pyrrolo[3,4-d]pyrimidin-4-yl)piperazin-2-yl)acetonitrile]	0%/ 0%	0%/ 0%
C=CC(=O)N1CCN(c2nc(OC[C@@H]3CCCN3C)nc3c2CN(Cc2cc(O)ccc2Cl)C3)C[C@@H]1CC#N [1-26, 2-((S)-1-acryloyl-4-(6-(2-chloro-5-hydroxybenzyl)-2-(((S)-1-methylpyrrolidin-2-yl)methoxy)-6,7-dihydro-5H-pyrrolo[3,4-d]pyrimidin-4-yl)piperazin-2-yl)acetonitrile]	74%/ 74%	74%/ 74%
C=CC(=O)N1CCN(c2nc(OC[C@@H]3CCCN3C)nc3c2CN(C2CCc4ccccc42)C3)[C@H](C#N)C1 (stereo partly drawn) [1-156]	11%	29%
